Data reported in patent US20030060487A1, “Treatment of neurodegenerative disease” (priority 2000, published 2003).

Assays:
[1] = target: T1, β-amyloid peptide (his-Aβ 1-40) (Homo sapiens, UniProt P05067); experiment: Colloid colorimetric drug screen for fibril inhibition at low peptide concentration, no pre-formed aggregate; format: biochemical; settings: 5 uM his-Aβ 1-40, no pre-formed aggregate; 5 ul drug (2.9 mg/ml in DMSO); 37C 1.5-2 hours; well stays pink vs blue
T1 construct: 10 ul of a 50 uM solution of his-Aβ 1-40 peptide in phosphate buffer
T1 sequence (P05067 672-711): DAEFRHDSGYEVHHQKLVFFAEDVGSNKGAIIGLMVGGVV
From the text: (§1) Compositions were identified that inhibit aggregation characteristic of neurodegenerative disease at high B-amyloid peptide concentration, low peptide concentration, and in some cases both. Compositions that inhibited aggregation at high concentration inhibited formation where an assay included B-amyloid peptide and at least some amount of pre-formed aggregate characteristic of neurodegenerative disease. Compositions that inhibited aggregation at low concentration inhibited […] in the presence of β-amyloid peptide but in the absence of any pre-formed aggregate characteristic of neurodegenerative disease.
In one drug screening method, histidine-tagged AB 1-40 peptides were immobilized on colloids derivatized with self-assembled monolayers containing NTA-Ni for the attachment of histidine-tagged peptides. It has been previously shown that the Aβ peptides, if not inhibited by a drug, will spontaneously convert to the fibrillar form and aggregate, pulling the colloids close together, and causing a color change from pink to blue.
Drugs from the Sigma-RBI Library of Pharmacologically Active Compounds (LOPAC; #SC001, 1999) were dissolved in dimethyl sulphoxide (DMSO) to a final concentration of 2.9 mg/ml. […]

[2] = test system: Amyloid Precursor Protein (APP) in HEK cells; experiment: Colorimetric whole cell screening assay for drugs that effect APP production, secretion, or cleavage; format: cell-based, Human; settings: HEK cells expressing APP; 1.25 ul of 2.9 mg/mL drug in DMSO per well, approx. 18 hours; then 5 uM His-AB colloids 8-12 hours
Method: Human Embryonic Kidney (HEK) cells expressing the Amyloid Precursor Protein (APP) were split into the wells of a 96-well cell-culture plate and were allowed to adhere and spread. […] Positive control cells were given DMSO in place of a drug. […] Cells were allowed to grow overnight for approximately 18 hours at 37C. After 18 hours, 1.925 mL of a 30 uM solution of His-tagged AB(1-40) in phosphate buffer was mixed with 2.880 mL 40 uM NTA colloids for a resulting concentration of 12 uM His-AB. 50 ul of the AB colloid solution was added to each well of the cell-culture plate, which contained 70 ul cell culture media per well. […] The plates were incubated at 37C for 8-12 hours, or until a color change from pink to blue occurred in the positive controls.
Once the positive controls changed color from pink to blue, the wells containing drug candidates were visually examined for a color change. […] Cell death due to drug toxicity would obviously effect APP production, and may cause a well to remain pink. For this reason, all wells containing drug candidates were examined under the microscope for cell viability.

[3] = target: T2, β-amyloid peptide (his-Aβ 1-40) with Aβ 1-42 fibrils (Homo sapiens, UniProt P05067); experiment: Colloid drug screen for aggregate inhibition at high peptide concentration, with pre-formed Aβ 1-42 fibrils; format: biochemical; settings: 20 uM his-Aβ 1-40 + 1 uM Aβ 1-42 fibrils; 5 ul drug (2.9 mg/ml in DMSO) in 100 ul; 37° C. 4-6 hours; microscope 40×
T2 construct: 10 ul of a 200 uM solution of his-Aβ 1-40 peptide in phosphate buffer; 3.3 ul of 30 uM Aβ 1-42 fibrils (non-histidine-tagged) was added to each well
T2 sequence (P05067 672-713): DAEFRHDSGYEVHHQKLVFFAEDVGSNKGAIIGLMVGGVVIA
T2 sequence (P05067 672-711): as the sequence (P05067 672-711) above
From the text: as §1
In another drug screening method, drugs were incubated with Aβ 1-42 fibrils, which will convert normal Aβ 1-40 peptides to the fibrillar form at a faster rate than Aβ 1-40 fibrils. Histidine-tagged Aβ 1-40 peptides were then added to the wells, along with colloids derivatized with self-assembled monolayers containing NTA-Ni for the attachment of histidine-tagged Aβ 1-40. It was previously shown that Aβ 1-42 fibrils will cause accelerated conversion of Aβ 1-40, which will then incorporate into large aggregates structures. These aggregates are colored red by the colloids attached to the peptides, and are easily visible under the microscope.
5 ul of each drug in DMSO was added to the wells of a 96-well ELISA plate, which contained 52 ul of phosphate buffer. […]

COc1cc(Cc2cnc(N)nc2N)cc(OC)c1OC [trimethoprim]
do not provide a positive result: inhibition of aggregate formation at low peptide concentration [1] | effect on APP production, secretion, or cleavage (lack of color change pink to blue) [2] | inhibition of aggregate formation at high peptide concentration [3]
